# In patent US9278963B2, “Pyrimidine hydroxy amide compounds as histone deacetylase inhibitors” (Acetylon Pharmaceuticals, Inc., priority 2013, dated 2016):
# Experiments:
# [1] = system: H929 human myeloma cells; assay: In vitro cell proliferation, MTS viability; assay type: cell-based; conditions: up to 7 days, relative to Day 0
# Experimental: Cellular viability was assessed using Aqueous One MTS reagent at Days 0 (immediately after seeding), 3, 5, and 7.
# [2] = system: fetal globin (HbG); assay: Fetal globin (HbG) induction in cultured CD34+ bone marrow cells; assay type: cell-based, human; conditions: 1 μM, treatment for 4 days
# [3] = system: human CD34+ bone marrow cells; assay: Cellular viability of cultured CD34+ bone marrow cells; conditions: 1 μM, treatment for 4 days
# [4] = molecular target: HDAC6 (Homo sapiens (Human), UniProt Q9UBN7); assay: HDAC enzyme assay, HDAC6; assay type: biochemical
# Experimental: Compounds for testing were diluted in DMSO to 50 fold the final concentration and a ten point three fold dilution series was made. The compounds were diluted in assay buffer (50 mM HEPES, pH 7.4, 100 mM KCl, 0.001% Tween-20, 0.05% BSA, 20 μM TCEP) to 6 fold their final concentration. The HDAC enzymes (purchased from BPS Biosciences) were diluted to 1.5 fold their final concentration in assay buffer. The tripeptide substrate and trypsin at 0.05 μM final concentration were diluted in assay buffer at 6 fold their final concentration. The final enzyme concentrations used in these assays were 3.3 ng/ml (HDAC1), 0.2 ng/ml (HDAC2), 0.08 ng/ml (HDAC3) and 2 ng/ml (HDAC6). The final substrate concentrations used were 16 μM (HDAC1), 10 μM (HDAC2), 17 μM (HDAC3) and 14 μM (HDAC6).
# Five μl of compounds and 20 μl of enzyme were added to wells of a black, opaque 384 well plate in duplicate. Enzyme and compound were incubated together at room temperature for 10 minutes. Five μ1 of substrate was added to each well, the plate was shaken for 60 seconds and placed into a Victor 2 microtiter plate reader. The development of fluorescence was monitored for 60 min and the linear rate of the reaction was calculated. The IC50 was determined using Graph Pad Prism by a four parameter curve fit. The IC50 values obtained for several of the compounds of this invention are found in Table 1.
# [5] = system: human erythroid, myeloid and megakaryocyte hematopoietic progenitors; assay: Hematopoietic progenitor proliferation (colony) assay; assay type: cell-based; conditions: compared with MS-275; 14-16 days in culture
# Experimental: This study evaluated the potential effect of test compounds on human erythroid, myeloid and megakaryocyte hematopoietic progenitor proliferation in media formulations containing various cytokines. Normal human bone marrow light density cells derived from a normal bone marrow donor (Lonza, Md.) were used for these studies. Clonogenic progenitors of human erythroid (CFU-E, BFU-E) and granulocyte-monocyte (CFU-GM) lineages were assessed in a semi-solid methylcellulose-based media formulation containing rhIL-3 (10 ng/mL), rhGM-SCF (10 ng/mL), rhSCF (50 ng/mL) and Epo (3 U/mL). Clonogenic progenitors of human megakaryocyte lineage were assessed in a semi-solid collagen based matrix containing rhIL-3 (10 ng/mL), rhIL-6 (10 ng/mL) and rhTpo (50 ng/mL).
# Compounds were added to the medium to give the final desired concentrations. […] Following 14-16 days in culture, myeloid and erythroid colonies were assessed microscopically and scored by trained personnel. […] The colonies were assessed and scored by trained personnel and divided into the following categories based on size; CFU-Mk (3-20), CFU-Mk (21-49) and CFU-Mk (≧50).
# The mean±1 standard deviation of three replicate cultures was calculated for progenitors in both media formulations. […] A sigmoidal curve was then fit to the graph and from this curve the inhibitory concentration (μM) was then calculated using the Boltzman equation […]
# [6] = molecular target: HDAC2 (Homo sapiens (Human), UniProt Q92769); assay: HDAC2glo assay; assay type: cell-based
# [7] = system: SH-SY5Y neuroblastoma cells; assay: Neuroblastoma maturation gene expression, SH-SY5Y; assay type: cell-based; conditions: 2 days, 3 μM
# Experimental: The following is a quick summary of the HDAC neuroblastoma maturation experiments. Adherent cells were plated into 12- or 24-well plates at 10^6 cells/well and allowed to adhere for 2-4 hours. Compounds were dispensed in DMSO at the indicated concentrations using an automated liquid handling system (Tecan D300) and incubated for the indicated times at 37° C. with 5% CO2. Cells were harvested and RNA extracted using the Qiagen RNeasy Mini Kit according to manufacture protocols. The RNA was quantified and relative expression levels were assessed using the Applied Biosystems TaqMan RNA-to-Ct Kit according to manufacture protocols using the indicated TaqMan probes.
# The protocol for the maturation experiments was as follows. The day before the experiment, the cells were fed in the flask by doubling the media. The cells were then harvested by adding non-enzymatic cell dissociation media and incubating at 37° C. for 15 minutes. The cells were transferred to a 50 ml tube and pipet to create a single-cell suspension. The cells were washed with PBS buffer. The cells were then resuspended in complete media at 5×10^5 cells per ml. Next, 2 ml of cells were transferred to 24- or 12-well plates. […] The RNA concentration was recorded. The relative RNA levels were assessed using the Applied Biosystems TaqMan RNA-to-Ct kit according to manufacture protocols using the indicated Taqman probes.
# Sequence of HDAC6 (Q9UBN7 whole entry): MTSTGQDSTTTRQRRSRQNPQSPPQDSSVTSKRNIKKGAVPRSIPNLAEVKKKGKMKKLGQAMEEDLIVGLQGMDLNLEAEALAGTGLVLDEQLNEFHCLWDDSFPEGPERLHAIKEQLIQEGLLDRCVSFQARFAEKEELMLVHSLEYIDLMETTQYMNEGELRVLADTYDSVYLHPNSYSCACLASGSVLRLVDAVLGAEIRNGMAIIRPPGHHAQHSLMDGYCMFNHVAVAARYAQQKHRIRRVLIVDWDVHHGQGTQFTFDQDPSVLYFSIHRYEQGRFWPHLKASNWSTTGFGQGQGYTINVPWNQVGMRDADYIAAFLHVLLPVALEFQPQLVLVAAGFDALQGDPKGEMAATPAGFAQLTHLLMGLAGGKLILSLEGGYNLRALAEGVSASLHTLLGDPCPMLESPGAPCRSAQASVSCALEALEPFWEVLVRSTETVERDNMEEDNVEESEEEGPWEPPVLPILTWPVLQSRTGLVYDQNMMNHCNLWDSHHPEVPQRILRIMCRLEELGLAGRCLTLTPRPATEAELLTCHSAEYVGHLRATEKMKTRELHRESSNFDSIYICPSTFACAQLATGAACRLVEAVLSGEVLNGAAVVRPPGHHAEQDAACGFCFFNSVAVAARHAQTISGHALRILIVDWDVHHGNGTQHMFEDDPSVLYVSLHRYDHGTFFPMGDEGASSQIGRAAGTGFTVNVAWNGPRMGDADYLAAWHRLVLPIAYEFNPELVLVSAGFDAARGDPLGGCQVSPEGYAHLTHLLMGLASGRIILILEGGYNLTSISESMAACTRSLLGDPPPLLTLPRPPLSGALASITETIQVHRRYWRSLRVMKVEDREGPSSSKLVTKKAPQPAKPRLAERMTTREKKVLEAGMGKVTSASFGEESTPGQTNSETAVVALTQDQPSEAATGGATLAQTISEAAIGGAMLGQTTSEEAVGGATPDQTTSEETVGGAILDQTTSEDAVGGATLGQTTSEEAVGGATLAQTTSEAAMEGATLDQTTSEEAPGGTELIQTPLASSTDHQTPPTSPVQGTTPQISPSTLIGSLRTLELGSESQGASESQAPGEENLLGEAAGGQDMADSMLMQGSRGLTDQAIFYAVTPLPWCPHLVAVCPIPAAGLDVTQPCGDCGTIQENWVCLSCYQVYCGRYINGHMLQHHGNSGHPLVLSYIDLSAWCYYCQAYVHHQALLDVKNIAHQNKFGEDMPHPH
# Sequence of HDAC2 (Q92769 whole entry): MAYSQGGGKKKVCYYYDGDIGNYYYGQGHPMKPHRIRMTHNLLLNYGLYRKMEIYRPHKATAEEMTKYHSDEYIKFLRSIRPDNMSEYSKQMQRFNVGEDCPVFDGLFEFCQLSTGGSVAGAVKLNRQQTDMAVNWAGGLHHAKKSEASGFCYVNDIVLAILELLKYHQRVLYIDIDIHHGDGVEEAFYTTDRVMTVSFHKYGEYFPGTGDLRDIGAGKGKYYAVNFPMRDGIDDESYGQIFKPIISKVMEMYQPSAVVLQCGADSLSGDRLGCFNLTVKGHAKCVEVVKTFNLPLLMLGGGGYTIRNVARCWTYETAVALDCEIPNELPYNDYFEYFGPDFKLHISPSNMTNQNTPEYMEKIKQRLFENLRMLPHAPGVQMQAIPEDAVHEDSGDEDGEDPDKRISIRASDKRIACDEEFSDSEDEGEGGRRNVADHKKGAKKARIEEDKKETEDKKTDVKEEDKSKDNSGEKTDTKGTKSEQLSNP
compound,measurement,setting,value
"O=C(NO)c1cnc(NC2(c3ccccc3)CCN(C(=O)Nc3ccccc3)CC2)nc1 [Compound 001, N-hydroxy-2-((4-phenyl-1-(phenylcarbamoyl)piperidin-4-yl)amino)pyrimidine-5-carboxamide]",doses resulting in a net decrease in the viability of H929 cells,[1],over 3 uM
same,increase in the percentage of HbG relative to other beta-like globin transcripts,[2],2 fold
same,decrease in cells viability,[3],1.2 fold
same,IC50,[4],1.9 nM
same,"cytotoxicity against erythroid, myeloid and megakaryocytes",[5],significantly less cytotoxicity
same,concentration at which maximal HDAC2 inhibition was reached,[6],3 to 4 µM
same,fold change of genes associated with maturation,[7],induces gene expression changes that are consistent with maturation
